Assays:
Assay in all cases: KINOMEscan
Assay type in all cases: binding
[1] = target: T1, ITK (Homo sapiens, UniProt Q08881); conditions: 1 uM
T1 construct: purchased Ambit KINOMEscan (DiscoverX)
Protocol: (§1) First, we used Ambit's KINOMEscan™ technology to identify those kinases that are inhibited for substrate binding by the compounds, all assayed at 1 μM. Second, we used Invitrogen's SelectScreen® Biochemical Kinase Profiling Service to determine the in vitro IC50s for the compounds against specific kinases.

[2] = target: T2, NEK5 (Homo sapiens, UniProt Q6P3R8); conditions: NEK5, 1 uM
T2 construct: purchased Ambit KINOMEscan (DiscoverX)
Protocol: as §1

[3] = target: T3, CSNK1A1 (Homo sapiens, UniProt P48729); conditions: CSNK1A1, 1 uM
T3 construct: purchased Ambit KINOMEscan (DiscoverX)
Protocol: as §1

[4] = target: T4, ROCK2 (Homo sapiens, UniProt O75116); conditions: for % binding compared to no inhibitor control: ROCK2, 1 uM
T4 construct: purchased Ambit KINOMEscan (DiscoverX)
T4 sequence (O75116 whole entry): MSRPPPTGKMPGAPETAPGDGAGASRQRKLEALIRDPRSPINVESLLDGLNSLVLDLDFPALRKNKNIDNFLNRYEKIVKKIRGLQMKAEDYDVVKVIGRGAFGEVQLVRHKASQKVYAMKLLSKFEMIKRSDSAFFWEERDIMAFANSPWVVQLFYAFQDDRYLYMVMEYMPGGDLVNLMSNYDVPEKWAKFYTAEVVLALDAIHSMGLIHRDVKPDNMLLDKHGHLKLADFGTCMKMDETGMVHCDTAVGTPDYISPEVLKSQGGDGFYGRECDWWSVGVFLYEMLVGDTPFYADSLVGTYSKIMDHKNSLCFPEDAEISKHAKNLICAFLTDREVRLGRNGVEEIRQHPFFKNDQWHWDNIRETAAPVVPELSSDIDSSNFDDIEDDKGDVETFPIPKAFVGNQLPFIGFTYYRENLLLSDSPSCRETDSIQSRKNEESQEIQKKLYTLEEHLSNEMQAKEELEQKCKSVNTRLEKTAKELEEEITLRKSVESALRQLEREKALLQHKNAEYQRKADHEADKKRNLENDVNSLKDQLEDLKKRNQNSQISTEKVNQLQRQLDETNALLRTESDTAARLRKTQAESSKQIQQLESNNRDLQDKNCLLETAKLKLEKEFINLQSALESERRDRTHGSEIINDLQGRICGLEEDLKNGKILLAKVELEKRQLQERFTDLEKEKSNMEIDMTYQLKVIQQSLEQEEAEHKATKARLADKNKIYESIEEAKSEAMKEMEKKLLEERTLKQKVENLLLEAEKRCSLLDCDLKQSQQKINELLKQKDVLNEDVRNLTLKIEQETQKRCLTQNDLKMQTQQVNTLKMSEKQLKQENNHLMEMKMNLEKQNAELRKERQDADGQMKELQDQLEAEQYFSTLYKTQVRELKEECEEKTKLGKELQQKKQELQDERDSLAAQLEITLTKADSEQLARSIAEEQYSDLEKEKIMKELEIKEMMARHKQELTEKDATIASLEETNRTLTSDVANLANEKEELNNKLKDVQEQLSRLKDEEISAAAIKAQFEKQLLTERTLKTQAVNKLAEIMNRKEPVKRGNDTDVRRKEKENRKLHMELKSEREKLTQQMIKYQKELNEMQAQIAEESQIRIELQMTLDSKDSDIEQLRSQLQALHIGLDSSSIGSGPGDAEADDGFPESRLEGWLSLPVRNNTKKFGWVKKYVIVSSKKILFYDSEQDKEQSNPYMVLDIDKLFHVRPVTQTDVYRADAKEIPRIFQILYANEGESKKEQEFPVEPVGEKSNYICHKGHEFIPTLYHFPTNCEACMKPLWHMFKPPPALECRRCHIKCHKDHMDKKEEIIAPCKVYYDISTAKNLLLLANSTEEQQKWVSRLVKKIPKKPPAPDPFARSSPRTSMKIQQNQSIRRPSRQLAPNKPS
Protocol: as §1

[5] = target: T5, TNNI3K (Homo sapiens, UniProt Q59H18); conditions: 1 uM
T5 construct: purchased Ambit KINOMEscan (DiscoverX)
Protocol: as §1

[6] = target: T6, MLK1 (Homo sapiens, UniProt P80192); conditions: MLK1, 1 uM
T6 construct: purchased Ambit KINOMEscan (DiscoverX)
Protocol: as §1

[7] = target: T7, PFTAIRE2 (Homo sapiens, UniProt Q96Q40); conditions: PFTAIRE2, 1 uM
T7 construct: purchased Ambit KINOMEscan (DiscoverX)
Protocol: as §1

[8] = target: T8, MST4 (Homo sapiens, UniProt Q9P289); conditions: MST4, 1 uM
T8 construct: purchased Ambit KINOMEscan (DiscoverX)
Protocol: as §1

[9] = target: T9, FES (Homo sapiens, UniProt P07332); conditions: 1 uM
T9 construct: purchased Ambit KINOMEscan (DiscoverX)
Protocol: as §1

[10] = target: T10, PRKCE (Homo sapiens, UniProt Q02156); conditions: 1 uM
T10 construct: purchased Ambit KINOMEscan (DiscoverX)
Protocol: as §1

[11] = target: T11, MRCKA (Homo sapiens, UniProt Q5VT25); conditions: 1 uM
T11 construct: purchased Ambit KINOMEscan (DiscoverX)
Protocol: as §1

[12] = target: T12, ABL1(F317I)-nonphosphorylated (Homo sapiens, UniProt P00519, F317I); conditions: 1 uM
T12 construct: purchased Ambit KINOMEscan (DiscoverX)
Protocol: as §1

[13] = target: T13, HUNK (Homo sapiens, UniProt P57058); conditions: 1 uM
T13 construct: purchased Ambit KINOMEscan (DiscoverX)
Protocol: as §1

[14] = target: T14, TEC (Homo sapiens, UniProt P42680); conditions: 1 uM
T14 construct: purchased Ambit KINOMEscan (DiscoverX)
Protocol: as §1

[15] = target: T15, MST1 (Homo sapiens, UniProt Q13043); conditions: MST1, 1 uM
T15 construct: purchased Ambit KINOMEscan (DiscoverX)
Protocol: as §1

[16] = target: T16, PRKG1 (Homo sapiens, UniProt Q13976); conditions: PRKG1, 1 uM
T16 construct: purchased Ambit KINOMEscan (DiscoverX)
T16 sequence (Q13976 whole entry): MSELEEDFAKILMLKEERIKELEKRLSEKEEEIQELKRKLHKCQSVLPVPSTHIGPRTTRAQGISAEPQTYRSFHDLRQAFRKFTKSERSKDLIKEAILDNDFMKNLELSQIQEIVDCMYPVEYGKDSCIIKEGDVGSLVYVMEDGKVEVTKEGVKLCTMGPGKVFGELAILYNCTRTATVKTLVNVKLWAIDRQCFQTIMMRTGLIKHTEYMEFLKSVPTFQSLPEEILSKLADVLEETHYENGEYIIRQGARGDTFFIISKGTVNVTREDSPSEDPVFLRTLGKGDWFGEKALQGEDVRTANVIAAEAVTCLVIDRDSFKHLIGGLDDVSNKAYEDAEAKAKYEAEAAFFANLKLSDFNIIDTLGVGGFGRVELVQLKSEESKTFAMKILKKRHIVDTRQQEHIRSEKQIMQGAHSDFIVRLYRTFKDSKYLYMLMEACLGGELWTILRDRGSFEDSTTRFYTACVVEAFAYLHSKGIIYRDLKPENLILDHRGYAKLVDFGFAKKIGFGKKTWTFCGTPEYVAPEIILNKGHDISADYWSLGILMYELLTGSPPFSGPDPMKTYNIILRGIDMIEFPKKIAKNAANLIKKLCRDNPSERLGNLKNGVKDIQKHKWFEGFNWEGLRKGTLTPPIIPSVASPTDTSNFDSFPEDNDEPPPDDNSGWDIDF
Protocol: as §1

[17] = target: T17, ERBB3 (Homo sapiens, UniProt P21860); conditions: ERBB3, 1 uM
T17 construct: purchased Ambit KINOMEscan (DiscoverX)
T17 sequence (P21860 20-1342): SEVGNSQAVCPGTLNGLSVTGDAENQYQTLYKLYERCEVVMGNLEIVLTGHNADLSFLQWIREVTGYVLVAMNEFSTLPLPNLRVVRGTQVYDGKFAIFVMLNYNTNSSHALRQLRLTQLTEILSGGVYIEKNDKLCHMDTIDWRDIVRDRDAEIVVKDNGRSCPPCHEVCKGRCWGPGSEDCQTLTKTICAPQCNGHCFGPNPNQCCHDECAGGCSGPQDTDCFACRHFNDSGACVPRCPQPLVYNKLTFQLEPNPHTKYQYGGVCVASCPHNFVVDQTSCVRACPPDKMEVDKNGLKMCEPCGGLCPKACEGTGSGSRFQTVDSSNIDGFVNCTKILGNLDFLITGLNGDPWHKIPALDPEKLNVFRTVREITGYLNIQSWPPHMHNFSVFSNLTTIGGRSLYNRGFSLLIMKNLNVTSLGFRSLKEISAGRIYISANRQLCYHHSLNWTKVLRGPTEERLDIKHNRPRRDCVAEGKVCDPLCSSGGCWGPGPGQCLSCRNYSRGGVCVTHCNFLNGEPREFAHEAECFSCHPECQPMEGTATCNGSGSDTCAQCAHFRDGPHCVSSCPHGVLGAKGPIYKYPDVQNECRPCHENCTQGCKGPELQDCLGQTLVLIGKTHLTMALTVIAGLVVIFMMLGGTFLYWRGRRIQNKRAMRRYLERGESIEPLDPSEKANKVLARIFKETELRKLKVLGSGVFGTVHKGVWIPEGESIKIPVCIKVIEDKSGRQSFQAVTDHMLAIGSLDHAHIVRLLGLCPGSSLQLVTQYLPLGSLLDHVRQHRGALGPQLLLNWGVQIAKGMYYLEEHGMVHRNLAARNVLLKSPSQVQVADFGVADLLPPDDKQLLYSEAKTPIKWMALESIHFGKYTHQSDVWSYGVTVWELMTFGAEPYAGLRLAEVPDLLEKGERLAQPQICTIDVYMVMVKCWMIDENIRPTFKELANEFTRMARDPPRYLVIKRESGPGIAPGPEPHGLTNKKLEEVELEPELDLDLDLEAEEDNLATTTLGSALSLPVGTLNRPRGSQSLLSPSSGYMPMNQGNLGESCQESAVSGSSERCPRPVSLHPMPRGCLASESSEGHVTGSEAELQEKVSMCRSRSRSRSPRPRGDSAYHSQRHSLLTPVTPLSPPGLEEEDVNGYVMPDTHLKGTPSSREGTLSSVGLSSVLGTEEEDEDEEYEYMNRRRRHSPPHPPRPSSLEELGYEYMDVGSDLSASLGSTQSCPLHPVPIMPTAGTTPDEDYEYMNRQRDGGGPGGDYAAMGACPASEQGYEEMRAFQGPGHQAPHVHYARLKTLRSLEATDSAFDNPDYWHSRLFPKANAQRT
Protocol: as §1

[18] = target: T18, IKK-alpha (Homo sapiens, UniProt O15111); conditions: 1 uM
T18 construct: purchased Ambit KINOMEscan (DiscoverX)
Protocol: as §1

[19] = target: T19, TTK (Homo sapiens, UniProt P33981); conditions: 1 uM
T19 construct: purchased Ambit KINOMEscan (DiscoverX)
Protocol: as §1

[20] = target: T20, ASK2 (Homo sapiens, UniProt O95382); conditions: ASK2, 1 uM
T20 construct: purchased Ambit KINOMEscan (DiscoverX)
Protocol: as §1

[21] = target: T21, MYO3A (Homo sapiens, UniProt Q8NEV4); conditions: 1 uM
T21 construct: purchased Ambit KINOMEscan (DiscoverX)
Protocol: as §1

[22] = target: T22, DRAK1 (Homo sapiens, UniProt Q9UEE5); conditions: DRAK1, 1 uM
T22 construct: purchased Ambit KINOMEscan (DiscoverX)
Protocol: as §1

[23] = target: T23, MKNK2 (Homo sapiens, UniProt Q9HBH9); conditions: MKNK2, 1 uM
T23 construct: purchased Ambit KINOMEscan (DiscoverX)
Protocol: as §1

[24] = target: T24, MYO3B (Homo sapiens, UniProt Q8WXR4); conditions: 1 uM
T24 construct: purchased Ambit KINOMEscan (DiscoverX)
Protocol: as §1

[25] = target: T25, LCK (Homo sapiens, UniProt P06239); conditions: 1 uM
T25 construct: purchased Ambit KINOMEscan (DiscoverX)
Protocol: as §1

[26] = target: T26, CDC2L1 (Homo sapiens, UniProt P21127); conditions: CDC2L1, 1 uM
T26 construct: purchased Ambit KINOMEscan (DiscoverX)
Protocol: as §1

[27] = target: T27, AKT1 (Homo sapiens, UniProt P31749); conditions: AKT1, 1 uM
T27 construct: purchased Ambit KINOMEscan (DiscoverX)
Protocol: as §1

[28] = target: T28, KIT(V559D) (Homo sapiens, UniProt P10721, V559D); conditions: 1 uM
T28 construct: purchased Ambit KINOMEscan (DiscoverX)
Protocol: as §1

[29] = target: T29, BMPR1B (Homo sapiens, UniProt O00238); conditions: 1 uM
T29 construct: purchased Ambit KINOMEscan (DiscoverX)
Protocol: as §1

[30] = target: T30, NEK2 (Homo sapiens, UniProt P51955); conditions: NEK2, 1 uM
T30 construct: purchased Ambit KINOMEscan (DiscoverX)
Protocol: as §1

[31] = target: T31, PIK3CD (Homo sapiens, UniProt O00329); conditions: 1 uM
T31 construct: purchased Ambit KINOMEscan (DiscoverX)
Protocol: as §1

[32] = target: T32, TRKB (Homo sapiens, UniProt Q16620); conditions: 1 uM
T32 construct: purchased Ambit KINOMEscan (DiscoverX)
Protocol: as §1

[33] = target: T33, RPS6KA4(Kin.Dom.1-N-terminal) (Homo sapiens, UniProt O75676); conditions: 1 uM
T33 construct: RPS6KA4(Kin.Dom.1-N-terminal); purchased Ambit KINOMEscan (DiscoverX)
T33 sequence (O75676 1-371 limits assumed): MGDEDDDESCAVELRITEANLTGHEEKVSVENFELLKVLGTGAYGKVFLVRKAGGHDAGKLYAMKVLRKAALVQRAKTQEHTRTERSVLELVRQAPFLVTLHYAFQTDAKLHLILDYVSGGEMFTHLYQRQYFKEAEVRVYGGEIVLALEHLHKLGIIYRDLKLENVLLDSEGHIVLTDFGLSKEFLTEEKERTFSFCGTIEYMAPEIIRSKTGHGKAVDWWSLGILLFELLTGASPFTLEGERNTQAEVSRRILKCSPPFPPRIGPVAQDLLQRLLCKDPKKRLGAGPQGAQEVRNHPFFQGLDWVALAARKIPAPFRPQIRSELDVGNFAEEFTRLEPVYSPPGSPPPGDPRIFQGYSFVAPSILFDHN
Protocol: as §1

[34] = target: T34, PLK3 (Homo sapiens, UniProt Q9H4B4); conditions: PLK3, 1 uM
T34 construct: purchased Ambit KINOMEscan (DiscoverX)
T34 sequence (Q9H4B4 whole entry): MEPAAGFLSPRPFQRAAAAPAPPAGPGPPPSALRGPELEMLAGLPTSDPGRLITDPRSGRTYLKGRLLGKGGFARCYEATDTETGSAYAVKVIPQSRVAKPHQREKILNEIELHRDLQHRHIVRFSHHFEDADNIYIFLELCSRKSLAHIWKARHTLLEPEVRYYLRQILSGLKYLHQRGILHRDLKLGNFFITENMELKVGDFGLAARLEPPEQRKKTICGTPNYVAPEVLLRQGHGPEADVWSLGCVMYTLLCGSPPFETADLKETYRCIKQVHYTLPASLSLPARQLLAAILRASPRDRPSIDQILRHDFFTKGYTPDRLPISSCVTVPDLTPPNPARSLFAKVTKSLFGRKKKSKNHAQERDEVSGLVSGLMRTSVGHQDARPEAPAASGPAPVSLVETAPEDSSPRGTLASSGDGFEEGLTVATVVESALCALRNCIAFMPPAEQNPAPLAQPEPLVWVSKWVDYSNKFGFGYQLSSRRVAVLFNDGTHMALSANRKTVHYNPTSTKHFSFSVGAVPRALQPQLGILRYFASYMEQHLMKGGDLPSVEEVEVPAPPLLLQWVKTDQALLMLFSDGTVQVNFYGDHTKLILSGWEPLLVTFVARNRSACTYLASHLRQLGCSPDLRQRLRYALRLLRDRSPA
Protocol: as §1

[35] = target: T35, TAOK1 (Homo sapiens, UniProt Q7L7X3); conditions: TAOK1, 1 uM
T35 construct: purchased Ambit KINOMEscan (DiscoverX)
Protocol: as §1

[36] = target: T36, PDGFRA (Homo sapiens, UniProt P16234); conditions: 1 uM
T36 construct: purchased Ambit KINOMEscan (DiscoverX)
Protocol: as §1

[37] = target: T37, IGF1R (Homo sapiens, UniProt P08069); conditions: 1 uM
T37 construct: purchased Ambit KINOMEscan (DiscoverX)
Protocol: as §1

[38] = target: T38, MINK (Homo sapiens, UniProt Q8N4C8); conditions: 1 uM
T38 construct: purchased Ambit KINOMEscan (DiscoverX)
Protocol: as §1

[39] = target: T39, CSNK1E (Homo sapiens, UniProt P49674); conditions: 1 uM
T39 construct: purchased Ambit KINOMEscan (DiscoverX)
T39 sequence (P49674 whole entry): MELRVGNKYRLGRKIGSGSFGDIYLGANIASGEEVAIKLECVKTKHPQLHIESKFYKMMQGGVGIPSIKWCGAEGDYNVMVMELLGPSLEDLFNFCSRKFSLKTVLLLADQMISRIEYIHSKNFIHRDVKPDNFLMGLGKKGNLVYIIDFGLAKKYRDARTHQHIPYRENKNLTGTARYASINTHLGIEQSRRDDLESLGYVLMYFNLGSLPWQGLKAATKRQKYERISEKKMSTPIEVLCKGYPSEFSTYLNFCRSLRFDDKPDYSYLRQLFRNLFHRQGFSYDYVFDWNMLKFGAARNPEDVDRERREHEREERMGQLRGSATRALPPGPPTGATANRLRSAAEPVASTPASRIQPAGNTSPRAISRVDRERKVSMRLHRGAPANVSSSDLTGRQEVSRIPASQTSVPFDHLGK
Protocol: as §1

[40] = target: T40, PAK2 (Homo sapiens, UniProt Q13177); conditions: PAK2, 1 uM
T40 construct: purchased Ambit KINOMEscan (DiscoverX)
Protocol: as §1

## COc1ccc(-c2cc3nccn3c(Nc3ncccc3C(N)=O)n2)cc1OC.Cl.Cl [BAY61-3606, 2-[7-(3,4-dimethoxyphenyl)-imidazo [1,2-c]pyrimidin-5-ylamino] nicotinamide dihydrochloride, reference compound]
[1]
  % binding compared to no inhibitor control: 100%
[2]
  % binding compared to no inhibitor control: 86%
[3]
  % binding compared to no inhibitor control: 100%
[4]
  % binding compared to no inhibitor control: 13%
[4]; ROCK2, KINOMEscan, 1 μM
  % inhibition ATP binding: 87%
[5]
  % binding compared to no inhibitor control: 100%
[6]
  % binding compared to no inhibitor control: 100%
[7]
  % binding compared to no inhibitor control: 85%
[8]
  % binding compared to no inhibitor control: 57%
[9]
  % binding compared to no inhibitor control: 88%
[10]
  % binding compared to no inhibitor control: 30%
[11]
  % binding compared to no inhibitor control: 83%
[12]
  % binding compared to no inhibitor control: 100%
[13]
  % binding compared to no inhibitor control: 67%
[14]
  % binding compared to no inhibitor control: 100%
[15]
  % binding compared to no inhibitor control: 85%
[16]
  % binding compared to no inhibitor control: 70%
[17]
  % binding compared to no inhibitor control: 100%
[18]
  % binding compared to no inhibitor control: 0.25%
[19]
  % binding compared to no inhibitor control: 51%
[20]
  % binding compared to no inhibitor control: 81%
[21]
  % binding compared to no inhibitor control: 80%
[22]
  % binding compared to no inhibitor control: 57%
[23]
  % binding compared to no inhibitor control: 1.7%
[24]
  % binding compared to no inhibitor control: 72%
[25]
  % binding compared to no inhibitor control: 87%
[26]
  % binding compared to no inhibitor control: 95%
[27]
  % binding compared to no inhibitor control: 93%
[28]
  % binding compared to no inhibitor control: 3%
[29]
  % binding compared to no inhibitor control: 77%
[30]
  % binding compared to no inhibitor control: 77%
[31]
  % binding compared to no inhibitor control: 81%
[32]
  % binding compared to no inhibitor control: 83%
[33]
  % binding compared to no inhibitor control: 32%
[34]
  % binding compared to no inhibitor control: 37%
[35]
  % binding compared to no inhibitor control: 95%
[36]
  % binding compared to no inhibitor control: 67%
[37]
  % binding compared to no inhibitor control: 97%
[38]
  % binding compared to no inhibitor control: 62%
[39]
  % binding compared to no inhibitor control: 94%
[40]
  % binding compared to no inhibitor control: 80%

## COc1ccccc1Nc1nc(-c2ccc(OC)c(OC)c2)cc2nccn12 [BAY derivative 6]
[1]
  % binding compared to no inhibitor control: 100%
[2]
  % binding compared to no inhibitor control: 72%
[3]
  % binding compared to no inhibitor control: 100%
[4]
  % binding compared to no inhibitor control: 96%
[5]
  % binding compared to no inhibitor control: 100%
[6]
  % binding compared to no inhibitor control: 100%
[7]
  % binding compared to no inhibitor control: 100%
[8]
  % binding compared to no inhibitor control: 72%
[9]
  % binding compared to no inhibitor control: 100%
[10]
  % binding compared to no inhibitor control: 100%
[11]
  % binding compared to no inhibitor control: 79%
[12]
  % binding compared to no inhibitor control: 100%
[13]
  % binding compared to no inhibitor control: 75%
[14]
  % binding compared to no inhibitor control: 100%
[15]
  % binding compared to no inhibitor control: 87%
[16]
  % binding compared to no inhibitor control: 100%
[17]
  % binding compared to no inhibitor control: 87%
[18]
  % binding compared to no inhibitor control: 100%
[19]
  % binding compared to no inhibitor control: 74%
[20]
  % binding compared to no inhibitor control: 100%
[21]
  % binding compared to no inhibitor control: 100%
[22]
  % binding compared to no inhibitor control: 100%
[23]
  % binding compared to no inhibitor control: 100%
[24]
  % binding compared to no inhibitor control: 100%
[25]
  % binding compared to no inhibitor control: 41%
[26]
  % binding compared to no inhibitor control: 100%
[27]
  % binding compared to no inhibitor control: 91%
[28]
  % binding compared to no inhibitor control: 54%
[29]
  % binding compared to no inhibitor control: 100%
[30]
  % binding compared to no inhibitor control: 88%
[31]
  % binding compared to no inhibitor control: 100%
[32]
  % binding compared to no inhibitor control: 74%
[33]
  % binding compared to no inhibitor control: 74%
[34]
  % binding compared to no inhibitor control: 100%
[35]
  % binding compared to no inhibitor control: 100%
[36]
  % binding compared to no inhibitor control: 100%
[37]
  % binding compared to no inhibitor control: 79%
[38]
  % binding compared to no inhibitor control: 100%
[39]
  % binding compared to no inhibitor control: 100%
[40]
  % binding compared to no inhibitor control: 76%

Source: PMC3399817 (PLoS ONE, 2012)
